{
  "source": "patent US11389501B1",
  "about": "“Method for treating eye inflammation using anti-inflammatory composition having bioactive compound” (TCI CO., LTD., priority 2021, dated 2022)",
  "type_in_all_cases": "cell-based",
  "key": {"IL-8 gene": {"test_system": "IL-8 gene", "assay": "qRT-PCR of IL-8 gene expression in blue light-irradiated human retinal pigment epithelial cells", "conditions": "ARPE-19 cells, 0.0125 mg/ml, incubated 24 h, then blue light 15 min; control group = 100%, comparative group (blue light only) 121.77%", "text": "(§1) In the present embodiment, an RNA extraction kit, a reverse transcriptase, and a KAPA SYBR® FAST qPCR reagent kit were used in conjunction with a quantitative PCR instrument to determine the changes in expression level of the genes associated with eye protection and anti-inflammation in human retinal pigment epithelial cells treated with the peptide having the amino acid sequence of SEQ ID NO.: 1. Further, the efficacy of the bioactive compound obtained from the cowhide peptides of the present disclosure in resisting blue light and preventing inflammatory reactions was confirmed.\n(§2) 1. Cell strain: Human retinal pigment epithelial cell ARPE-19 (purchased from ATCC, product number CRL-2302). […]\n(§3) The cell membranes of each group of human retinal pigment epithelial cells (i.e., the control group, the comparative group, and the experimental group) resulted from the cell treatment stage were broken with cell lysates. […] Then the cDNA of each group was subjected to a quantitative real-time reverse transcription polymerase chain reaction (qRT-PCR) using the ABI StepOnePlus™ Real-time PCR system (Thermo Fisher Scientific), KAPA SYBR FAST (Sigma, USA, product number 38220000000) and the primers listed in Table 3 (SEQ 1D NO.: 2 to SEQ ID NO.: 9) to assess the expression of VEGFA gene. […] Gene quantification was performed using a 2^−ΔCt method. […]"}, "VEGFA gene": {"test_system": "VEGFA gene", "assay": "qRT-PCR of VEGFA gene expression in blue light-irradiated human retinal pigment epithelial cells", "conditions": "ARPE-19 cells, 0.0125 mg/ml, incubated 24 h, then blue light 15 min; control group = 100%, comparative group (blue light only) 109.47%", "text": "as §1, §2, §3"}, "IL-1β gene": {"test_system": "IL-1β gene", "assay": "qRT-PCR of IL-1β gene expression in blue light-irradiated human retinal pigment epithelial cells", "conditions": "ARPE-19 cells, 0.0125 mg/ml, incubated 24 h, then blue light 15 min; control group = 100%, comparative group (blue light only) 109.21%", "text": "as §1, §2, §3"}},
  "data": [
    {"smiles": "CC(C)C[C@H](NC(=O)[C@H](CO)NC(=O)[C@@H](NC(=O)[C@@H]1CCCN1C(=O)[C@H](CC(C)C)NC(=O)CNC(=O)[C@H](CO)NC(=O)[C@@H]1CCCN1C(=O)[C@H](CC(C)C)NC(=O)[C@H](CCCCN)NC(=O)C(N)C(C)O)C(C)C)C(=O)O", "note": "(stereo partly drawn) [cowhide peptide, TKLPSGLPVSL]", "values": [
      {"measurement": "expression of IL-8 gene relative to the control group", "setting": "IL-8 gene", "value": 88.29, "unit": "%"},
      {"measurement": "expression of VEGFA gene relative to the control group", "setting": "VEGFA gene", "value": 84.07, "unit": "%"},
      {"measurement": "expression of IL-1β gene relative to the control group", "setting": "IL-1β gene", "value": 66.36, "unit": "%"}
    ]}
  ]
}
